Reference: ChEMBL document CHEMBL5360622, “Leucettinibs, a Class of DYRK/CLK Kinase Inhibitors Inspired by the Marine Sponge Natural Product Leucettamine B” (J Med Chem, 2023)

Columns and labels:
[1] = target: Dual specificity tyrosine-phosphorylation-regulated kinase 1A (Homo sapiens, UniProt Q13627)
[2] = target: T1, Dual specificity tyrosine-phosphorylation-regulated kinase 2 (Homo sapiens, UniProt Q92630)
T1 sequence (Q92630 whole entry): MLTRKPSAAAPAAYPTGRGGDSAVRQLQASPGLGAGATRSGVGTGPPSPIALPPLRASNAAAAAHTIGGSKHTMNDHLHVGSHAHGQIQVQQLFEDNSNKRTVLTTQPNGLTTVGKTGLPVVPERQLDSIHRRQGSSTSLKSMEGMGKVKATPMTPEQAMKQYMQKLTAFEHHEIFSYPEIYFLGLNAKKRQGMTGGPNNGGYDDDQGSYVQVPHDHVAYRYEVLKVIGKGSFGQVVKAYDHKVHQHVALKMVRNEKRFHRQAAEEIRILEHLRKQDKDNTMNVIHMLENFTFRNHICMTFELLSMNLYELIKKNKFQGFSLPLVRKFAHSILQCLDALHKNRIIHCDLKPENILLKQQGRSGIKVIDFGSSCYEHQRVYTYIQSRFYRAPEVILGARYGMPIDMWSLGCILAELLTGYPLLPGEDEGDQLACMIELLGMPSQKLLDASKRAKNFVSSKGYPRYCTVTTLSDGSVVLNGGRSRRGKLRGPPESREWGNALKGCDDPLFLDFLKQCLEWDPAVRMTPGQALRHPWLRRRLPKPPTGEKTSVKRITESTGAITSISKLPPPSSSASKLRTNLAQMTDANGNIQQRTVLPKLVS

[3] = target: Cyclin-dependent kinase 5/CDK5 activator 1 (Homo sapiens, UniProt Q00535); type: cell-based, Sf9
Sequence of Cyclin-dependent kinase 5/CDK5 activator 1 (Q00535 whole entry): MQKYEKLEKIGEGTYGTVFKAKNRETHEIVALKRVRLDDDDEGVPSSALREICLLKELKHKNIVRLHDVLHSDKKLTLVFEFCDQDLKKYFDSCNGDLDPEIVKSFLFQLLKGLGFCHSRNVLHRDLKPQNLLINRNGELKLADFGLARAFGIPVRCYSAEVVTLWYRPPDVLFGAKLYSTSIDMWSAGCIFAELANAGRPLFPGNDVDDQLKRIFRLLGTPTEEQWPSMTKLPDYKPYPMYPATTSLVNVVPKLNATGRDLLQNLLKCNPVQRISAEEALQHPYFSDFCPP
Sequence of Cyclin-dependent kinase 5/CDK5 activator 1 (Q15078 whole entry, further chain): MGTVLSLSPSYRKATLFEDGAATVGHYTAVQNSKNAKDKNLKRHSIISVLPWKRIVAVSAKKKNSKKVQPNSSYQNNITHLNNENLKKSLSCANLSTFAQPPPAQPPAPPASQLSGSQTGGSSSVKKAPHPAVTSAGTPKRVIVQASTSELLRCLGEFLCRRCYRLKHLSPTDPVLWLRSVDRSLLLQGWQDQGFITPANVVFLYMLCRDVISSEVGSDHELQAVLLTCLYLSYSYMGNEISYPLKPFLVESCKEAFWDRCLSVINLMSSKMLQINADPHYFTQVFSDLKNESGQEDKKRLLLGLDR

[4] = target: Dual specificity protein kinase CLK3 (Homo sapiens, UniProt P49761); type: cell-based, Sf9
Sequence of Dual specificity protein kinase CLK3 (P49761 whole entry): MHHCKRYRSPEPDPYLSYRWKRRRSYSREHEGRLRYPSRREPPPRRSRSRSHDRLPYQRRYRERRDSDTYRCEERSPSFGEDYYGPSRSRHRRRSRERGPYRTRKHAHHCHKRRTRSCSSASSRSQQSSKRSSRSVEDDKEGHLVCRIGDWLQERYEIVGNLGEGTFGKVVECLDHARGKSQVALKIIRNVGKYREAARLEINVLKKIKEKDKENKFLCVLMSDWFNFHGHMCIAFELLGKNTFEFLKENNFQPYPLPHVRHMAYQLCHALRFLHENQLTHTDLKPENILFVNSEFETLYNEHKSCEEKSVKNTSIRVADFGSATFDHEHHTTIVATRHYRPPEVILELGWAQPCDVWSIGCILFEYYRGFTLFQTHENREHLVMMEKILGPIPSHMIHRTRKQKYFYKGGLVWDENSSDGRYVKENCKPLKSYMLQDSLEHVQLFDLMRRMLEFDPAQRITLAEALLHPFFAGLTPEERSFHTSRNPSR

[5] = target: Dual specificity protein kinase CLK4 (Homo sapiens, UniProt Q9HAZ1)
Sequence of Dual specificity protein kinase CLK4 (Q9HAZ1 whole entry): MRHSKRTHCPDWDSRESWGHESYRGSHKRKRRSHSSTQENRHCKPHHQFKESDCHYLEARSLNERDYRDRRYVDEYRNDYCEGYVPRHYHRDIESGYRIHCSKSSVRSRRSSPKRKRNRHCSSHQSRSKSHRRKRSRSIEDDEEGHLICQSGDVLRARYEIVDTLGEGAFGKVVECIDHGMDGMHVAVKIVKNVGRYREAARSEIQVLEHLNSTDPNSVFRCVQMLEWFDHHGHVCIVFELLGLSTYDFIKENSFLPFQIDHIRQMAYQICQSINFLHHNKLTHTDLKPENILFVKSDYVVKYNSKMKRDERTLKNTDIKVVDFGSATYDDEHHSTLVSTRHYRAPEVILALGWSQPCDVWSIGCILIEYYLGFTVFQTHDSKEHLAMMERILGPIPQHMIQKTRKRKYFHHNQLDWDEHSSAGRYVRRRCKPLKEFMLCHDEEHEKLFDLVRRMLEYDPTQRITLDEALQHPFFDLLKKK

[6] = target: Dual specificity protein kinase CLK1 (Homo sapiens, UniProt P49759); type: cell-based, Sf9
Sequence of Dual specificity protein kinase CLK1 (P49759 whole entry): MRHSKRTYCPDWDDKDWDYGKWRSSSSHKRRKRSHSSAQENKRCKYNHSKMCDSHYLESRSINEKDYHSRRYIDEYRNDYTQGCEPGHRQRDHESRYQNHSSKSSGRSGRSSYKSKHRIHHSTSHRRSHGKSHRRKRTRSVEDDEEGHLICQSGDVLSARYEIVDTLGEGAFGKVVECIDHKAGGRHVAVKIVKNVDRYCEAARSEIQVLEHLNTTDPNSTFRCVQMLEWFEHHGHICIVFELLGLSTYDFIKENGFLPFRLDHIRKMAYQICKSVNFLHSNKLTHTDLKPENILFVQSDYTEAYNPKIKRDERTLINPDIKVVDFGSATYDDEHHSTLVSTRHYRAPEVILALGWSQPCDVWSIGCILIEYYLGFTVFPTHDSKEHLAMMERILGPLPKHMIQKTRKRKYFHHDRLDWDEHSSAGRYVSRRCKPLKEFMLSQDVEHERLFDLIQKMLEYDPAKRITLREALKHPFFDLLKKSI

[7] = target: Dual specificity protein kinase CLK2 (Homo sapiens, UniProt P49760)
Sequence of Dual specificity protein kinase CLK2 (P49760 whole entry): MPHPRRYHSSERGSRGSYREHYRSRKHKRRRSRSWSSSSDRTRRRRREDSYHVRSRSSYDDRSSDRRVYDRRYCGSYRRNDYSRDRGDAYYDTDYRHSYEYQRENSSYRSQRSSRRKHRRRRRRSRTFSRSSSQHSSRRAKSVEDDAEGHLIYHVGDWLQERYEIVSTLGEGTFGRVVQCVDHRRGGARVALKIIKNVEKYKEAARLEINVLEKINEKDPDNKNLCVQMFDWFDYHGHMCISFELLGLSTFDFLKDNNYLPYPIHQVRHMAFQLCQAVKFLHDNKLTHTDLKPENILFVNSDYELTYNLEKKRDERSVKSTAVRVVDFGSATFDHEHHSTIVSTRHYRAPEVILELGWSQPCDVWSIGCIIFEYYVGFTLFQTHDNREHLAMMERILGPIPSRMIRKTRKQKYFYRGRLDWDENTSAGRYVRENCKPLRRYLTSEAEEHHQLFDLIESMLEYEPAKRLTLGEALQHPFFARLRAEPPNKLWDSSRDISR

[8] = target: T2, Dual specificity tyrosine-phosphorylation-regulated kinase 4 (Homo sapiens, UniProt Q9NR20)
T2 sequence (Q9NR20 whole entry): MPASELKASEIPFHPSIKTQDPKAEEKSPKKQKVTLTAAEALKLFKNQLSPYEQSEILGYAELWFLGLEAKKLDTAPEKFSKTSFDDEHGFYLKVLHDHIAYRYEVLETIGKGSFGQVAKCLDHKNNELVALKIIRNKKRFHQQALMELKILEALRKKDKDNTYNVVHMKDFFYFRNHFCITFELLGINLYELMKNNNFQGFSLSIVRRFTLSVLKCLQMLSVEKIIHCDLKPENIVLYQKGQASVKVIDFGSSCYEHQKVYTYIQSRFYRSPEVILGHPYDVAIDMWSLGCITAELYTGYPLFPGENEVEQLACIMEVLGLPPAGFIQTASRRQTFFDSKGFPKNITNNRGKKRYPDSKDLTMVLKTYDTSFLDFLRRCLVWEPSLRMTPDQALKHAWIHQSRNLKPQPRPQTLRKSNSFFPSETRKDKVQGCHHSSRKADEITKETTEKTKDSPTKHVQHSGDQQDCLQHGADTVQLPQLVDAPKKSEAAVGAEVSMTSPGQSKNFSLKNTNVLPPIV

[9] = target: Glycogen synthase kinase-3 beta (Homo sapiens, UniProt P49841); type: cell-based, Sf9
Sequence of Glycogen synthase kinase-3 beta (P49841 whole entry, canonical isoform): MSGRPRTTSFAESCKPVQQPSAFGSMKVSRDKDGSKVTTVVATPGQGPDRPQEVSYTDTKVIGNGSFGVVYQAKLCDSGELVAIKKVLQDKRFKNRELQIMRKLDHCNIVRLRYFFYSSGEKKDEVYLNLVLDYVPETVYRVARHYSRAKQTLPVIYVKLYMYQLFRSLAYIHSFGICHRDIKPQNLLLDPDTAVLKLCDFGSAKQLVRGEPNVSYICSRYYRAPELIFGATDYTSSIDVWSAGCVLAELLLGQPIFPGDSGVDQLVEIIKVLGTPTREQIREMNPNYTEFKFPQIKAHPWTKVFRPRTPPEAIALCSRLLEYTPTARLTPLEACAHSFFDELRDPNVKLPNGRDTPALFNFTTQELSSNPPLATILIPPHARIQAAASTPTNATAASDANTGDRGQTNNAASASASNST

[10] = target: Casein kinase I isoform epsilon (Homo sapiens, UniProt P49674)
Sequence of Casein kinase I isoform epsilon (P49674 whole entry, canonical isoform): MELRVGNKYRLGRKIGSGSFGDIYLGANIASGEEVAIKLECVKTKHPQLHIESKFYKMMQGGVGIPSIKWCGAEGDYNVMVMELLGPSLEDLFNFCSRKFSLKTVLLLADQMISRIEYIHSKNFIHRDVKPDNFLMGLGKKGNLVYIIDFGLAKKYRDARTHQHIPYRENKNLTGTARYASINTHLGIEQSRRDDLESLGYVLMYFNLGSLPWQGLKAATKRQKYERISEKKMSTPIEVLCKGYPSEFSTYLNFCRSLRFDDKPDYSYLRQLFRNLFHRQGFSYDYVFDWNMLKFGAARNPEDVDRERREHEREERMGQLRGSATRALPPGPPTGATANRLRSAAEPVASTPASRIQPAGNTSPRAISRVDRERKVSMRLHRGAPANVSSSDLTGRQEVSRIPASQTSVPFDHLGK

[11] = target: T3, Dual specificity tyrosine-phosphorylation-regulated kinase 3 (Homo sapiens, UniProt O43781)
T3 sequence (O43781 whole entry): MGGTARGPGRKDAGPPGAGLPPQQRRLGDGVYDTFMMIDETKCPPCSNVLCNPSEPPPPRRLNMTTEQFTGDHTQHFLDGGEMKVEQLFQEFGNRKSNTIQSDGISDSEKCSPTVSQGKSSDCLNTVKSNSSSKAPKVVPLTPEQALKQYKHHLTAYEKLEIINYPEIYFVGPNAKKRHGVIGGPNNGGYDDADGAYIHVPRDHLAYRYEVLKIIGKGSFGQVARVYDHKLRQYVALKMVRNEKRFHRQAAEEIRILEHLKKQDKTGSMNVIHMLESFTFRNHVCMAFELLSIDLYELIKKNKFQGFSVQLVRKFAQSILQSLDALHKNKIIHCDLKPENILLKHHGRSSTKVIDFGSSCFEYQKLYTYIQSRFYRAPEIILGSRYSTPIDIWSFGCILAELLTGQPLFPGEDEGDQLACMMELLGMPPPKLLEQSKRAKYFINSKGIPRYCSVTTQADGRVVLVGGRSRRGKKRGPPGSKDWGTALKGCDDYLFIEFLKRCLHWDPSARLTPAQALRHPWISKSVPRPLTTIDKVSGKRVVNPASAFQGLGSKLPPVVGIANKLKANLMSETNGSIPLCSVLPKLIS

| Compound | IC50 [1] [nM] | IC50 [2] [nM] | IC50 [3] [µM] | IC50 [4] [nM] | IC50 [5] [nM] | IC50 [6] [nM] | IC50 [7] [nM] | IC50 [8] [nM] | IC50 [9] [µM] | IC50 [10] [µM] | IC50 [11] [nM] |
| --- | --- | --- | --- | --- | --- | --- | --- | --- | --- | --- | --- |
| Cn1cnc2cc(/C=C3\N=C(NC45CC6CC(CC(C6)C4)C5)NC3=O)ccc21 | > 10000 | > 10000 | > 10 | > 10000 | > 10000 | > 10000 | > 10000 | > 10000 | > 10 | > 10 | > 10000 |
| O=C1NC(NC23CC4CC(CC(C4)C2)C3)=N/C1=C\c1ccc2c(c1)CCO2 | 50 | 1630 | > 10 | > 10000 | 66 | 102 | 17 | 626 | > 10 | > 10 | – |
| O=C1NC(NC23CC4(F)CC(F)(CC(F)(C4)C2)C3)=N/C1=C\c1ccc2ncsc2c1 | 1 | 10 | 0.025 | 90 | 4 | 11 | – | 146 | 0.094 | 0.062 | 2 |
| O=C1NC(NC2CCCCC2)=N/C1=C\c1ccc2[nH]ccc2c1 | > 10000 | > 10000 | > 10 | > 10000 | > 10000 | > 10000 | > 10000 | > 10000 | > 10 | > 10 | > 10000 |
| O=C1NC(NC2CCCCC2)=N/C1=C\c1ccc2c(c1)CCO2 | 237 | 3390 | > 10 | 5380 | 52 | 104 | 1250 | 2990 | > 10 | > 10 | – |
| O=C1NC(NC23CC4CC(CC(C4)C2)C3)=N/C1=C\c1ccc2[nH]cnc2c1 | 2 | 51 | > 10 | 7570 | 2 | 5 | 2 | 218 | > 10 | – | – |
| O=C1NC(NC2CCCCCC2)=N/C1=C\c1ccc2[nH]ncc2c1 | 33 | 1870 | > 10 | 266 | 112 | 139 | 725 | – | 3.95 | > 10 | – |
| Cn1cnc2ccc(/C=C3\N=C(NC4CCCCC4)NC3=O)cc21 | 93 | 1470 | > 10 | 1080 | 8 | 20 | – | 1110 | > 10 | – | – |
| O=C1NC(NC23CC4CC(CC(C4)C2)C3)=N/C1=C\c1ccc2c(c1)OCO2 | 2 | 183 | > 10 | > 10000 | 4 | 17 | 96 | 1640 | > 10 | > 10 | – |
| Cn1ncc2cc(/C=C3\N=C(NC4CCCCC4)NC3=O)ccc21 | 141 | 2540 | > 10 | 1710 | 649 | 2510 | 7770 | > 10000 | > 10 | > 10 | – |

The remaining compounds from weak to strong by IC50 [1], led by results:

| IC50 [1] [nM] | IC50 [2] [nM] | IC50 [3] [µM] | IC50 [4] [nM] | IC50 [5] [nM] | IC50 [6] [nM] | IC50 [7] [nM] | IC50 [8] [nM] | IC50 [9] [µM] | IC50 [10] [µM] | IC50 [11] [nM] | Compound |
| --- | --- | --- | --- | --- | --- | --- | --- | --- | --- | --- | --- |
| 570 | 3700 | > 10 | 4530 | – | 951 | 6330 | > 10000 | > 10 | > 10 | 4130 | Cn1cc2cc(/C=C3\N=C(NC4CCCCC4)NC3=O)ccc2n1 |
| 98 | 2180 | > 10 | 1550 | 8 | 31 | 507 | 865 | > 10 | – | – | O=C1NC(NC2CCCCCC2)=N/C1=C\c1ccc2[nH]cnc2c1 |
| 74 | – | > 10 | 4280 | 43 | 92 | 955 | 1320 | 8.4 | > 10 | 2080 | O=C1NC(NC2CCCCC2)=N/C1=C\c1ccc2c(c1)OCO2 |
| 67 | 1490 | 8.7 | 804 | – | 17 | 102 | 1040 | > 10 | > 10 | 758 | Cn1cnc2ccc(/C=C3\N=C(NC4CCCCCC4)NC3=O)cc21 |
| 37 | 1580 | > 10 | 381 | 430 | 1240 | > 10000 | 6090 | > 10 | > 10 | – | Cn1ncc2cc(/C=C3\N=C(NC4CCCCCC4)NC3=O)ccc21 |
| 14 | 15 | – | 700 | 12 | 12 | 30 | – | 0.2 | – | 10 | COc1ccc(/C=C2\N=C(Nc3ccc(N4CCN(C)CC4)cc3)NC2=O)cc1O |
| 10 | 260 | > 10 | 1080 | 4 | 5 | 14 | 663 | 7.77 | – | 74 | O=C1NC(NC23CC4CC(CC(C4)C2)C3)=N/C1=C\c1ccc2[nH]ncc2c1 |
| 7 | 95 | 0.65 | 1060 | 3 | 9 | 3 | 80 | 1.54 | > 10 | 68 | Cn1cnc2ccc(/C=C3\N=C(NC45CC6CC(CC(C6)C4)C5)NC3=O)cc21 |
| 7 | 413 | > 10 | 284 | 7 | 20 | 86 | 2290 | 5.14 | > 10 | 1230 | COC(=O)[C@H](C)NC1=N/C(=C\c2ccc3ncsc3c2)C(=O)N1 |
| 7 | 8 | – | 1100 | 19 | 17 | 67 | – | 0.12 | – | 14 | CN1CCN(c2ccc(NC3=N/C(=C\c4ccc5c(c4)OCCO5)C(=O)N3)cc2)CC1 |
| 2 | – | > 10 | > 10000 | – | 4 | – | 4300 | > 10 | > 10 | 40 | Cn1cc2cc(/C=C3\N=C(NC45CC6CC(CC(C6)C4)C5)NC3=O)ccc2n1 |
| 1 | 62 | 0.28 | 8530 | 3 | 8 | – | – | 0.202 | > 10 | 38 | O=C1NC(NC23CC4CC(CC(C4)C2)C3)=N/C1=C\c1ccc2ncoc2c1 |
